From ChEMBL document CHEMBL5500399, “Design, Synthesis, and Biological Evaluation of 1,2,4-Oxadiazole Derivatives Containing an Aryl Carboxylic Acid Moiety as Potent Sarbecovirus Papain-like Protease Inhibitors” (J Med Chem, 2024)
The source made the active and inactive calls. The calls are words filed in the database; no cut-off is given here.

Columns and labels:
[1] = molecular target: T1, Replicase polyprotein 1ab (Severe acute respiratory syndrome coronavirus 2, UniProt P0DTD1); experiment: Inhibition of SARS-CoV2 PLpro using Z-RLRGG-AMC as substrate preincubated for 10 mins followed by substrate addition and measured after 20 sec shaking for 30 mins by time-resolved fluorescence assay
[2] = Metabolic stability in human hepatocytes assessed as compound remaining at 1 uM measured after 30 mins; type: ADME, cell-based, Hepatocyte; settings: read-out: Stability
[3] = Metabolic stability in human hepatocytes assessed as intrinsic clearance per million cells at 1 uM measured upto 30 mins; type: ADME, cell-based, Hepatocyte; settings: read-out: CLH
[4] = Metabolic stability in mouse hepatocytes assessed as compound remaining at 1 uM measured after 30 mins; type: ADME, cell-based, Hepatocyte; settings: read-out: Stability
[5] = Metabolic stability in mouse hepatocytes assessed as intrinsic clearance per million cells at 1 uM measured upto 30 mins; type: ADME, cell-based, Hepatocyte; settings: read-out: CLH
[6] = Metabolic stability in human hepatocytes assessed as half life at 1 uM measured upto 30 mins; type: ADME, cell-based, Hepatocyte
[7] = molecular target: T1, Replicase polyprotein 1ab; experiment: Binding affinity to SARS-CoV2 PLpro by biolayer interferometry analysis
[8] = Metabolic stability in mouse hepatocytes assessed as half life at 1 uM measured upto 30 mins; type: ADME, cell-based, Hepatocyte
[9] = molecular target: Replicase polyprotein 1ab (Severe acute respiratory syndrome coronavirus 2) (UniProt P0DTD1); experiment: Binding affinity to SARS-CoV2 PLpro assessed as stabilization by measuring increase melting temperature by thermal shift assay
[10] = molecular target: Replicase polyprotein 1ab (Severe acute respiratory syndrome coronavirus 2) (UniProt P0DTD1); experiment: Potency index, ratio of GRL0617 IC50 to test compound IC50 for inhibition of SARS-CoV2 PLpro
[11] = tested on: Severe acute respiratory syndrome-related coronavirus; experiment: Inhibition of SARS-CoV PLpro using Z-RLRGG-AMC as substrate preincubated for 10 mins followed by substrate addition and measured after 20 sec shaking for 30 mins by time-resolved fluorescence assay
[12] = Metabolic stability in CD-1 mouse liver microsomes assessed as half life at 1 uM preincubated for 5 mins followed by NADPH addition and measured after 30 mins by LC-MS/MS analysis; type: ADME, Microsome; settings: time 35 min
[13] = Metabolic stability in CD-1 mouse liver microsomes assessed as compound remaining at 1 uM preincubated for 5 mins followed by NADPH addition and measured after 30 mins by LC-MS/MS analysis; type: ADME, Microsome; settings: read-out: Stability
[14] = Metabolic stability in human liver microsomes assessed as half life at 1 uM preincubated for 5 mins followed by NADPH addition and measured after 30 mins by LC-MS/MS analysis; type: ADME, Microsome; settings: time 35 min
[15] = molecular target: Replicase polyprotein 1ab (Severe acute respiratory syndrome coronavirus 2) (UniProt P0DTD1); experiment: Inhibition of RLRGG binding to SARS-CoV2 PLpro
[16] = molecular target: Replicase polyprotein 1ab (Middle East respiratory syndrome-related coronavirus (isolate UnitedKingdom/H123990006/2012) (Betacoronavirus England 1) (Humancoronavirus EMC)) (UniProt K9N7C7); experiment: Inhibition of MERS-CoV PLpro using Z-RLRGG-AMC as substrate preincubated for 10 mins followed by substrate addition and measured after 20 sec shaking for 30 mins by time-resolved fluorescence assay; settings: time 40.3 min
[17] = Metabolic stability in human liver microsomes assessed as compound remaining at 1 uM preincubated for 5 mins followed by NADPH addition and measured after 30 mins by LC-MS/MS analysis; type: ADME, Microsome; settings: read-out: Stability
[18] = molecular target: Replicase polyprotein 1ab (Severe acute respiratory syndrome coronavirus 2) (UniProt P0DTD1); experiment: Inhibition of SARS-CoV2 PLpro cleavage activity using 2Ub-K48 as substrate incubated overnight by SYPRO Ruby staining based SDS-PAGE analysis

Compound	IC50 [1] [µM]	also measured
CONC(=O)c1ccc(-c2ccc(-c3noc(C(C)c4cccc5ccccc45)n3)cc2)cc1 (stereo not drawn)	0.9	
Cc1ccc(-c2noc(C(C)c3cccc(C(O)c4ccccc4)c3)n2)cc1NCc1ccc(C(=O)O)s1 (stereo not drawn)	11.1	
CC(c1nc(-c2ccc(-c3ccc(C(=O)O)cc3)cc2)no1)c1cccc2ccccc12 (stereo not drawn)	11.7	
CC(c1nc(-c2cc(NCc3ccc(C(=O)O)cc3)cc(C(F)(F)F)c2)no1)c1cccc2ccccc12 (stereo not drawn)	0.2	remaining at 0.5 h, 1 µM [2]: 56.6%; hepatocyte CLint at 1 µM [3]: 19 µL/min/1e6 cells; remaining at 0.5 h, 1 µM [4]: 28.8%; hepatocyte CLint at 1 µM [5]: 41.5 µL/min/1e6 cells; half-life at 1 µM [6]: 0.608 h; Kd [7]: 13.6 µM; half-life at 1 µM [8]: 0.278 h
Cc1ccc(-c2noc(C(C)c3ccc(CC(C)C)cc3)n2)cc1NCc1ccc(C(=O)O)s1 (stereo not drawn)	3.6	
COc1ccc2cc([C@H](C)c3nc(-c4ccc(C)c(NCc5ccc(C(=O)O)s5)c4)no3)ccc2c1	5.8	
Cc1ccc(NC2CCC(C#N)CC2)cc1-c1noc(C(C)c2cccc3ccccc23)n1 (stereo not drawn)	> 200	
CC(c1nc(-c2cccc(NCc3ccc(C(=O)O)o3)c2)no1)c1cccc2ccccc12 (stereo not drawn)	96.5	
Cc1ccc(-c2noc(-c3cccc4ccccc34)n2)cc1NCc1ccc(C(=O)O)s1	11.6	
Cc1ccc(NCc2cccc(C(=O)O)c2)cc1-c1noc(C(C)c2cccc3ccccc23)n1 (stereo not drawn)	11.1	
CC(c1nc(-c2ccc(NCc3ccc(C(=O)O)cc3)cc2)no1)c1cccc2ccccc12 (stereo not drawn)	50.2	
Cc1ccc(-c2noc(-c3ccc(-c4ccccc4)cc3)n2)cc1NCc1ccc(C(=O)O)s1	25.5	
Cc1ccc(-c2noc(C(C)c3cccc4ccccc34)n2)cc1NCc1ccc(C(=O)O)cc1 (stereo not drawn)	0.2	
COc1ccc(-c2noc(C(C)c3cccc4ccccc34)n2)cc1NCc1ccc(C(=O)O)s1 (stereo not drawn)	1.3	
Cc1ccc(-c2noc([C@@H](C)c3ccc(-c4ccccc4)c(F)c3)n2)cc1NCc1ccc(C(=O)O)s1	3.4	
CC(c1nc(-c2ccc(N(C)Cc3ccc(C(=O)O)s3)cc2)no1)c1cccc2ccccc12 (stereo not drawn)	4	
Cc1ccc(-c2noc(C(c3ccccc3)c3ccccc3)n2)cc1NCc1ccc(C(=O)O)s1	9	Activity [9]: Active
COc1ccc2cc([C@@H](C)c3nc(-c4ccc(C)c(NCc5ccc(C(=O)O)s5)c4)no3)ccc2c1	10.5	
Cc1ccc(NCc2ccc(O)cc2)cc1-c1noc(C(C)c2cccc3ccccc23)n1 (stereo not drawn)	176	

Compound	IC50 [1] [µM]	also measured
Cc1ccc(NCc2ccc(C(=O)O)o2)cc1-c1noc(C(C)c2cccc3ccccc23)n1 (stereo not drawn)	14.4	
CC(c1noc(-c2ccc(-c3ccc(C(=O)O)s3)cc2)n1)c1cccc2ccccc12 (stereo not drawn)	2.1	
COC1CCC(Nc2ccc(C)c(-c3noc(C(C)c4cccc5ccccc45)n3)c2)CC1 (stereo not drawn)	114	
Cc1ccc(-c2noc([C@H](C)c3ccc(-c4ccccc4)c(F)c3)n2)cc1NCc1ccc(C(=O)O)s1	4	
CC(c1nc(-c2cc(NCc3ccc(C(=O)O)s3)cc(C(F)(F)F)c2)no1)c1cccc2ccccc12 (stereo not drawn)	0.1	remaining at 0.5 h, 1 µM [2]: 79.8%; hepatocyte CLint at 1 µM [3]: 7.5 µL/min/1e6 cells; remaining at 0.5 h, 1 µM [4]: 68%; hepatocyte CLint at 1 µM [5]: 12.9 µL/min/1e6 cells; Ratio IC50 [10]: 10; half-life at 1 µM [6]: 1.54 h; Kd [7]: 13.6 µM; half-life at 1 µM [8]: 0.898 h
Cc1ccc(-c2noc(C(O)c3ccccc3)n2)cc1NCc1ccc(C(=O)O)s1 (stereo not drawn)	435	
Cc1ccc(NCc2ccc(C(=O)O)cc2)cc1-c1noc(C(C)c2cccc3ccccc23)n1 (stereo not drawn)	11.2	
Cc1ccc(-c2noc(C(C)c3cccc(-c4ccccc4)c3)n2)cc1NCc1ccc(C(=O)O)s1 (stereo not drawn)	4.3	
CC(c1nc(-c2cc(NCc3ccc(C(=O)O)cc3)ccc2Br)no1)c1cccc2ccccc12 (stereo not drawn)	2.1	
Cc1ccc(NCc2ccc(C#N)cc2)cc1-c1noc(C(C)c2cccc3ccccc23)n1 (stereo not drawn)	> 200	
CC(c1nc(-c2ccc(Nc3ccc(C(=O)O)cc3)cc2)no1)c1cccc2ccccc12 (stereo not drawn)	4.2	
COC(=O)c1ccc(Nc2ccc(C)c(-c3noc(C(C)c4cccc5ccccc45)n3)c2)cc1 (stereo not drawn)	70.9	
Cc1ccc(NCc2ccc(S(C)(=O)=O)cc2)cc1-c1noc(C(C)c2cccc3ccccc23)n1 (stereo not drawn)	59.2	
Cc1ccc(-c2noc(Cc3cccc(-c4cccs4)c3)n2)cc1NCc1ccc(C(=O)O)s1	6.8	
Cc1ccc(-c2noc(C(C)c3cccc4ccccc34)n2)cc1NCc1ccc(C(=O)O)s1 (stereo not drawn)	0.1	Ratio IC50 [10]: 10
Cc1ccc(-c2noc(C(C)c3cccc(Oc4ccccc4)c3)n2)cc1NCc1ccc(C(=O)O)s1 (stereo not drawn)	4.4	inhibition [11]: Active; half-life at 1 µM [12]: > 1.55 h; remaining at 0.5 h, 1 µM [13]: 80%; half-life at 1 µM [14]: > 1.55 h; inhibition [15]: Active; inhibition [16]: Active; remaining at 0.5 h, 1 µM [17]: 87%; inhibition [18]: Active
Cc1ccc(-c2noc(C(C)c3ccc4c(c3)[nH]c3ccc(Cl)cc34)n2)cc1NCc1ccc(C(=O)O)s1 (stereo not drawn)	1.9	Kd [7]: 13.6 µM
Cc1ccc(NCc2ccc(C(=O)O)s2)cc1-c1noc(C(C)c2cccc3ccccc23)n1 (stereo not drawn)	10.4	
Cc1ccc(NC2CCCC(C(=O)O)C2)cc1-c1noc(C(C)c2cccc3ccccc23)n1 (stereo not drawn)	35.1	

Compound	IC50 [1] [µM]	also measured
Cc1ccc(Nc2ccc(C(=O)O)cc2)cc1-c1noc(C(C)c2cccc3ccccc23)n1 (stereo not drawn)	10.7	
Cc1ccc(-c2noc(C(C)c3ccc(N4Cc5ccccc5C4=O)cc3)n2)cc1NCc1ccc(C(=O)O)s1 (stereo not drawn)	3.9	
CC(c1nc(-c2cccc(NCc3ccc(C(=O)O)cc3)c2)no1)c1cccc2ccccc12 (stereo not drawn)	7.5	
CC(c1nc(-c2ccc(NCc3ccc(C(=O)O)s3)cc2)no1)c1cccc2ccccc12 (stereo not drawn)	0.2	inhibition [11]: Active; half-life at 1 µM [12]: > 1.55 h; remaining at 0.5 h, 1 µM [13]: 93.8%; Activity [9]: Active; half-life at 1 µM [14]: > 1.55 h; inhibition [15]: Active; Kd [7]: 13.6 µM; inhibition [16]: Active; remaining at 0.5 h, 1 µM [17]: 102%; inhibition [18]: Active
Cc1ccc(-c2noc(-c3ccccc3)n2)cc1NCc1ccc(C(=O)O)s1	59	
CC(c1noc(-c2ccc(-c3ccc(C#N)s3)cc2)n1)c1cccc2ccccc12 (stereo not drawn)	31.4	
COc1ccc2cc(C(C)c3nc(-c4ccc(C)c(NCc5ccc(C(=O)O)s5)c4)no3)ccc2c1 (racemic)	5.9	
Cc1ccc(-c2noc(C(C)(C)c3ccc(-c4ccccc4)cc3)n2)cc1NCc1ccc(C(=O)O)s1	35.4	
Cc1ccc(NCC(C)(C)C)cc1-c1noc(C(C)c2cccc3ccccc23)n1 (stereo not drawn)	> 200	
Cc1ccc(NC2CCCCC2)cc1-c1noc(C(C)c2cccc3ccccc23)n1 (stereo not drawn)	101	
CC(c1ncc(-c2ccc(-c3ccc(C#N)s3)cc2)o1)c1cccc2ccccc12 (stereo not drawn)	20.8	
CC(c1nc(-c2ccc(-c3ccc(C#N)s3)cc2)no1)c1cccc2ccccc12 (stereo not drawn)	0.6	
COC(=O)c1ccc(CNc2ccc(C)c(-c3noc(C(C)c4cccc5ccccc45)n3)c2)cc1 (stereo not drawn)	> 200	
CC(c1ncc(-c2ccc(-c3ccc(C(=O)O)s3)cc2)o1)c1cccc2ccccc12 (stereo not drawn)	7.7	
Cc1ccc(N)cc1-c1noc(C(C)c2cccc3ccccc23)n1 (stereo not drawn)	> 200	
Cc1ccc(-c2noc(C(C)c3cccc(-c4cccs4)c3)n2)cc1NCc1ccc(C(=O)O)s1 (stereo not drawn)	4.1	Activity [9]: Active
CC(c1nc(-c2cccc(NCc3ccc(C(=O)O)s3)c2)no1)c1cccc2ccccc12 (stereo not drawn)	7.6	
Cc1ccc(NC2CCC(C(=O)O)CC2)cc1-c1noc(C(C)c2cccc3ccccc23)n1 (stereo not drawn)	22.7	
